Laboratory results: US20130224110A1, “USE OF ADENOSINE RECEPTOR SIGNALING TO MODULATE PERMEABILITY OF BLOOD-BRAIN BARRIER” (CORNELL UNIVERSITY, priority 2010, published 2013)

Experiments:
blood brain barrier [1] = assay: Evans Blue dye extravasation across the blood brain barrier; format: in vivo, mice; conditions: single i.v. injection 100 μl 0.01 nM one hour before dye
Procedure: The objective of this experiment was to determine if the blood brain barrier could be modulated by activation of adenosine receptors. NECA is a non-selective adenosine receptor agonist, with similar affinities for A1, A2A and A3 adenosine receptors and a low affinity for the A2b adenosine receptor. In order to determine if activation of adenosine receptors would induce extravasation of Evans Blue dye across the blood brain barrier (BBB), mice were treated with: NECA, a non-selective adenosine receptor agonist (n=5, 100 μl 0.01 nM); SCH58261, an A2A adenosine receptor specific antagonist (n=5, 1 mg/kg); pertussis toxin, an agent known to induce BBB leakiness and as such used as a positive control (n=7, 200 μl); and, PBS as a vehicle control (n=5, 100 μl). CD73^−/− mice, which lack the ability to produce extracellular adenosine, were also treated with NECA (n=4, 100 μl 0.01 nM). Treatments were administered as a single i.v. injection one hour prior to i.v. injection of 200 μl 1% Evans Blue dye ([…] total dye injected). Four hours after administration of Evans Blue, mice were anesthetized with a ketamine/xylazine mix and perfused via the left ventricle with ice cold PBS. […] Following extraction, the tissue/solvent mixture was centrifuged at 500×g for 30 minutes and 100 μl of supernatant was read on a BioTex spectrophotometer at 620 nm. Data is expressed as μg Evans Blue/ml DMF.

HCMECD3 cells = assay: cAMP levels in human brain endothelial cells (cAMP Screen kit); format: cell-based; conditions: 15 minutes
Procedure: […]3 cells were grown to confluencey on 24 well plates. As adenosine receptor (“AR”) stimulation is known to influence cAMP levels, cells were treated with or without various concentrations of NECA (general AR agonist), CCPA (A1 AR agonist), CGS 21860 (A2A AR agonist), DMSO vehicle, or Forksolin (induces cAMP). After 15 minutes, lysis buffer was added and the cells were frozen at -80 C to stop the reaction. Duplicate samples were used for each condition. cAMP levels were assayed using a cAMP Screen kit (Applied Biosystems, Foster City, Calif.).

[2] = cited from earlier work
blood brain barrier [3] = assay: Entry of i.v. anti-β-amyloid antibody 6E10 into brain of transgenic AD (APP/PSEN) mice after NECA; format: in vivo; conditions: NECA i.v. 3 h before 6E10 i.v., brains collected after 90 min
Procedure: Wild type and transgenic (AD) mice were given 0.80 μg NECA (i.v.). After 3 h, 400 μg of antibody to β-amyloid (200 μl of 2 mg/ml; clone 6E10, Covance, Princeton, N.J.) was administered i.v. and the mice rested for 90 min. Mice were then anesthetized and perfused as described above and their brains were placed in OTC and flash-frozen for later sectioning. Sagital sections (6 μm) were fixed in acetone for 10 min, then washed in PBS. Sections were blocked with casein for 20 min then incubated with 1:50 dilution of goat anti-mouse IgCy5 (polyclonal, 1 mg/ml, Abcam, Cabridge, Mass.) for 20 min then washed 3 times in PBS. Sections were then dried and mounted with VectashieldHardset mounting media with DAPI (Vector Laboratories, Burlingame, Calif.). Images were obtained on a Zeiss Axio Imager M1 fluorescent microscope.
The most challenging therapeutic agents to get across the BBB are macromolecules such as antibodies, due to their enormous size (˜150 kDa). It was asked whether adenosine receptor modulation with NECA can facilitate the entry of antibodies into the CNS. To test this, a double [amyloid precursor protein (APP)/presenilin (PSEN)] transgenic mouse model of AD [strain B6.Cg-Tg(APPswe,PSEN1dE9)85Dbo/J] was used. […]

With `CCNC(=O)[C@H]1O[C@@H](n2cnc3c(N)ncnc32)[C@H](O)[C@@H]1O` [NECA, 5′-N-ethylcarboxamido adenosine] the “Evans Blue dye migration vs. PBS control” value (blood brain barrier [1]; CD73−/− mice) was “almost five fold increase”, the “Evans Blue dye migration vs. control” value (blood brain barrier [1]; WT mice) was “increase over control mice” and the cAMP levels (HCMECD3 cells) was “increased cAMP levels”. For the same molecule, the half-life [2] was roughly 5 h and the “binding of i.v. injected 6E10 antibody to Aβ plaques in brain” value (blood brain barrier [3]) was “Binding of 6E10 antibody to Aβ plaques was observed throughout the brains”.
